From patent US20100119483A1, “PEPTIDE VIRAL ENTRY INHIBITORS” (Schering Corporation, priority 2004, published 2010)
Several values for one entry are separate records, joined by “and”; a condition that tells them apart may be missing. Equal values may be shown once.

Key:
HCV pseudoparticles [1] = assay: HCV pseudoparticle entry assay, anti-CD81 antibody and peptide titrated in a 96-well matrix; format: cell-based, hepatitis C virus; details: HCV entry inhibition, combination
Protocol: The anti-CD81 antibody and the peptide were titrated in duplicates in a 96-well formatted matrix and tested in an HCV pseudoparticle entry assay. The assays were carried out essentially as described above.
Dose response curves of anti-CD81 antibody with various amounts of peptide were plotted vs. RLU, and the results are summarized below. […] When the peptide was present at 10-30% of its IC50 concentration, the IC50 for anti-CD81 was reduced by 3 to 6-fold. Similarly, when the peptide was present at 1% to 25% of its IC75 concentration, the IC75 for the anti-CD81 antibody was reduced by 3 to 9 fold. Thus, the peptide enhances the potency of the anti-CD81 antibody.

[2] = system: amphotropic murine leukemia virus; assay: AMLV pseudotyped virus entry counter-screen, same infection protocol; format: cell-based; details: peptide library screen; cell entry inhibition vs uninhibited control
In short: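 Huh7 hepatoma cells pre-incubated with peptide 1 h at 37 °C, then infected with AMLV pseudotyped virus and cultured 72 h at 37 °C, 5% CO2 before luciferase read-out. Peptides screened at 100 ug/ml, then 10-point 3-fold titrations from 100 ug/ml.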

HCVpp = assay: Wash off study, HCVpp entry under conditions A-D at 37° C. or 4° C.; format: cell-based, hepatitis C virus; details: for luciferase units: 37° C.; for luciferase units observed in the entry assay: 4° C., listed as V-2b
Protocol: To identify if the peptides of the invention bind to the cells and therefore inhibit entry, anti-CD81 antibody or peptide (SEQ ID NO: 77) was tested at four conditions: • (A) peptide or anti-CD81 antibody was pre-incubated with cells and virus separately, cells were washed and virus together with peptide was added; • (B) peptide or anti-CD81 antibody was pre-incubated with virus only first and then virus together with peptide was added to the cells; • (C) peptide or anti-CD81 antibody was preincubated with cells only and washed off, and then virus was added; and • (D) same as C except that virus was washed off after 1 hour of incubation.
The majority of difference seen before the 4-hour time-point is in line with the model wherein most of the entry events occur during the first four hours (data not shown). As expected, the RLU signal was reduced at earlier time points and lead to higher variation of the assay. […] In anticipating similar phenomena might exist with the peptide, we applied the one hour virus incubation in the following studies. In tables 19-22, condition D was identical to condition C except that virus was removed after 1 hour of incubation. […] Anti-CD81 antibody binds to CD81 expressed on the cells and therefore blocks HCVpp entry.
The data in tables 19 and 20 were generated in assays conducted at 37° C. The date generated in tables 21 and 22 were generated in assays conducted at 4° C. The numbers in each table (19-22) represent the luciferase units observed in the entry assay under each indicated condition.

HCV pseudoparticles [3] = assay: Fusion/attachment experiments with HCV pseudoparticles (4° C. attachment, 37° C. entry); format: cell-based, hepatitis C virus; details: for RLU: single replicates, listed as V-2b
Protocol: The entry process was allowed to complete after the cells were washed and incubated at 37° C. for 72 hours. If the peptide blocked or interfered with the attachment, few HCVpp particles should bind to the cells and lead to reduced luciferase signal. The peptide had approximately 50% inhibition whereas the anti-CD81 antibody inhibited entry by 20%. Alternatively, an explanation could be that the cell-associated peptide or antibody had no effects on virus attachment, but rather inhibit post-attachment steps, e.g. fusion. When we allowed the HCV pseudoparticles to attach first at 4° C., a nonpermissive temperature for fusion, and added the peptide or anti-CD81 antibody when post-attachment events occurred, anti-CD81 antibody almost inhibited entry by 100%, whereas, the peptide inhibited by approximately 80%.
The incubation scheme for the fusion/attachment experiments is summarized as follows: […]

[4] = peptide 0.0457 ug/ml, condition A
[5] = peptide 0.0457 ug/ml, condition B
[6] = peptide 0.0457 ug/ml, condition C
[7] = peptide 0.1372 ug/ml, condition A
[8] = peptide 0.1372 ug/ml, condition B
[9] = peptide 0.1372 ug/ml, condition C
[10] = peptide 0.4115 ug/ml, condition A
[11] = peptide 0.4115 ug/ml, condition B
[12] = peptide 0.4115 ug/ml, condition C
[13] = peptide 1.2346 ug/ml, condition A
[14] = peptide 1.2346 ug/ml, condition B
[15] = peptide 1.2346 ug/ml, condition C
[16] = peptide 3.7037 ug/ml, condition A
[17] = peptide 3.7037 ug/ml, condition B
[18] = peptide 3.7037 ug/ml, condition C
[19] = peptide 11.1111 ug/ml, condition A
[20] = peptide 11.1111 ug/ml, condition C
[21] = peptide 33.3333 ug/ml, condition A
[22] = peptide 33.3333 ug/ml, condition B
[23] = peptide 33.3333 ug/ml, condition C
[24] = A + P (attachment + post attachment)

For “V-S-F-A-I-K-W-E-Y-V-L-L-L-F-L-L [SEQ ID NO: 77]”, the “effect of the peptide on potency of anti-CD81 antibody” value (HCV pseudoparticles [1]) was “enhance the potency of an anti-CD81 antibody”, the AMLVpp % inh [2] was 3% and the luciferase units (HCVpp; peptide 0.0046 ug/ml (two lines), condition A) was 74772 luciferase units and 76125 luciferase units and 57485 luciferase units and 58523 luciferase units. For the same substance, the luciferase units (HCVpp; peptide 0.0046 ug/ml (two lines), condition B) was 65028 luciferase units and 60343 luciferase units and 57349 luciferase units and 51858 luciferase units, the luciferase units (HCVpp; peptide 0.0046 ug/ml (two lines), condition C) was 40529 luciferase units and 45271 luciferase units and 37116 luciferase units and 32831 luciferase units and the luciferase units (HCVpp; [4]) was 50460 luciferase units and 53231 luciferase units. For the same substance, the luciferase units (HCVpp; [5]) was 47929 luciferase units and 53377 luciferase units, the luciferase units (HCVpp; [6]) was 36956 luciferase units and 46680 luciferase units and the luciferase units (HCVpp; peptide 0.0457 ug/ml, condition D) was 3531 luciferase units and 2785 luciferase units. The luciferase units (HCVpp; [7]) was 44159 luciferase units and 41959 luciferase units, the luciferase units (HCVpp; [8]) was 43468 luciferase units and 36136 luciferase units and the luciferase units (HCVpp; [9]) was 34241 luciferase units and 44163 luciferase units. For the same substance, the luciferase units (HCVpp; peptide 0.1372 ug/ml, condition D) was 2443 luciferase units and 4834 luciferase units, the luciferase units (HCVpp; [10]) was 28106 luciferase units and 25559 luciferase units and the luciferase units (HCVpp; [11]) was 26979 luciferase units and 31819 luciferase units. For the same substance, the luciferase units (HCVpp; [12]) was 40225 luciferase units and 43467 luciferase units, the luciferase units (HCVpp; peptide 0.4115 ug/ml, condition D) was 3257 luciferase units and 2555 luciferase units and the luciferase units (HCVpp; [13]) was 21301 luciferase units and 21733 luciferase units. The luciferase units (HCVpp; [14]) was 25204 luciferase units and 14452 luciferase units, the luciferase units (HCVpp; [15]) was 36450 luciferase units and 40467 luciferase units and the luciferase units (HCVpp; [16]) was 15025 luciferase units and 10613 luciferase units. The luciferase units (HCVpp; [17]) was 15213 luciferase units and 12233 luciferase units, the luciferase units (HCVpp; [18]) was 31857 luciferase units and 32265 luciferase units and the luciferase units (HCVpp; peptide 3.7037 ug/ml, condition D) was 2974 luciferase units and 3707 luciferase units. For the same substance, the luciferase units (HCVpp; [19]) was 12402 luciferase units and 6768 luciferase units, the luciferase units (HCVpp; peptide 11.1111 ug/ml, condition B) was 10212 luciferase units and 6902 luciferase units and the luciferase units (HCVpp; [20]) was 28818 luciferase units and 33022 luciferase units. For the same substance, the luciferase units (HCVpp; peptide 11.1111 ug/ml, condition D) was 3302 luciferase units and 3259 luciferase units, the luciferase units (HCVpp; [21]) was 6467 luciferase units and 6356 luciferase units and the luciferase units (HCVpp; [22]) was 7146 luciferase units and 4501 luciferase units. The luciferase units (HCVpp; [23]) was 23383 luciferase units and 19309 luciferase units, the luciferase units (HCVpp; peptide 33.3333 ug/ml, condition D) was 2351 luciferase units and 2058 luciferase units and the luciferase units (HCVpp; peptide 100.0000 ug/ml, condition A (pre-incubated with cells and virus separately, cells washed)) was 9216 luciferase units and 7419 luciferase units. The luciferase units (HCVpp; peptide 100.0000 ug/ml, condition B (pre-incubated with virus only)) was 8074 luciferase units and 4093 luciferase units, the luciferase units (HCVpp; peptide 100.0000 ug/ml, condition C (pre-incubated with cells only, washed off)) was 19088 luciferase units and 14073 luciferase units and the luciferase units (HCVpp; peptide 100.0000 ug/ml, condition D (as C, virus washed off after 1 hour)) was 780 luciferase units and 1531 luciferase units. For the same substance, the “luciferase units observed in the entry assay” value (from here on “luciferase units observed”) (HCVpp; peptide 0.0046 ug/ml, condition A) was 22435 luciferase units and 18765 luciferase units and 17613 luciferase units and 22306 luciferase units, the “luciferase units observed” value (HCVpp; peptide 0.0046 ug/ml, condition B) was 26860 luciferase units and 23215 luciferase units and 23633 luciferase units and 21213 luciferase units and the “luciferase units observed” value (HCVpp; peptide 0.0046 ug/ml, condition C) was 13903 luciferase units and 13795 luciferase units and 14095 luciferase units and 10535 luciferase units. For the same substance, the “luciferase units observed” value (HCVpp; [4]) was 7498 luciferase units and 7299 luciferase units, the “luciferase units observed” value (HCVpp; [5]) was 6703 luciferase units and 9954 luciferase units and the “luciferase units observed” value (HCVpp; [6]) was 16101 luciferase units and 13757 luciferase units. For the same substance, the “luciferase units observed” value (HCVpp; [7]) was 5745 luciferase units and 7826 luciferase units, the “luciferase units observed” value (HCVpp; [8]) was 7670 luciferase units and 6880 luciferase units and the “luciferase units observed” value (HCVpp; [9]) was 9444 luciferase units and 10124 luciferase units. The “luciferase units observed” value (HCVpp; [10]) was 5517 luciferase units and 5574 luciferase units, the “luciferase units observed” value (HCVpp; [11]) was 4724 luciferase units and 3648 luciferase units and the “luciferase units observed” value (HCVpp; [12]) was 9027 luciferase units and 11381 luciferase units. The “luciferase units observed” value (HCVpp; [13]) was 3584 luciferase units and 5974 luciferase units, the “luciferase units observed” value (HCVpp; [14]) was 5542 luciferase units and 4382 luciferase units and the “luciferase units observed” value (HCVpp; [15]) was 6131 luciferase units and 6853 luciferase units. For the same substance, the “luciferase units observed” value (HCVpp; [16]) was 2824 luciferase units and 3255 luciferase units, the “luciferase units observed” value (HCVpp; [17]) was 3059 luciferase units and 3424 luciferase units and the “luciferase units observed” value (HCVpp; [18]) was 9414 luciferase units and 8570 luciferase units. The “luciferase units observed” value (HCVpp; [19]) was 2833 luciferase units and 2954 luciferase units, the “luciferase units observed” value (HCVpp; [20]) was 7352 luciferase units and 4725 luciferase units and the “luciferase units observed” value (HCVpp; [21]) was 1677 luciferase units and 2383 luciferase units. For the same substance, the “luciferase units observed” value (HCVpp; [22]) was 2900 luciferase units and 1914 luciferase units, the “luciferase units observed” value (HCVpp; [23]) was 8294 luciferase units and 8104 luciferase units and the “luciferase units observed” value (HCVpp; peptide 100 ug/ml, condition A) was 1924 luciferase units and 1845 luciferase units. The “luciferase units observed” value (HCVpp; peptide 100 ug/ml, condition C) was 5118 luciferase units and 8821 luciferase units, the “inhibition compared to anti-CD81 antibody in the wash-off experiment” value (HCVpp; pre-incubated with cells at 37° C. and 4° C.) was “more inhibition” and the “inhibition at condition C” value (HCVpp; pre-incubated with cells only and washed off, then virus added) was “little inhibition”. For the same substance, the “step of HCVpp entry inhibited” value (HCV pseudoparticles [3]) was “largely inhibits a post-attachment step”, the “% control peptide” value (HCV pseudoparticles [3]; A (attachment)) was 39 % control and the “RLU average (peptide)” value (HCV pseudoparticles [3]; A (attachment)) was 5942 RLU. The RLU (HCV pseudoparticles [3]; A (attachment)) was 5196 RLU and 7987 RLU and 4644 RLU, the “% control peptide” value (HCV pseudoparticles [3]; [24]) was 6 % control and the “RLU average (peptide)” value (HCV pseudoparticles [3]; [24]) was 863 RLU. For the same substance, the RLU (HCV pseudoparticles [3]; [24]) was 527 RLU and 1541 RLU and 520 RLU, the inhibition of entry (HCV pseudoparticles [3]; HCV pseudoparticles attached first at 4° C., substance added when post-attachment events occurred) was “approximately 80%” and the “% control peptide” value (HCV pseudoparticles [3]; P (post attachment)) was 11 % control. For the same substance, the “RLU average (peptide)” value (HCV pseudoparticles [3]; P (post attachment)) was 1647 RLU, the RLU (HCV pseudoparticles [3]; P (post attachment)) was 1984 RLU and 2412 RLU and 545 RLU and the inhibition of entry (HCV pseudoparticles [3]; pre-incubated with cells at 4° C., then HCV pseudoparticles at 4° C., washed, 37° C. for 72 hours (attachment)) was “approximately 50%”.
